Where two headings read alike, the source gives them in different places.
Tests used:
HCT-116 = experiment: Cytotoxicity secondary screen (IC50); format: cell-based; settings: Homo sapiens, 48 h exposure, mean of triplicates, NE: no effect
Protocol: (§1) Next, we performed a cytotoxicity screening of the nineteen molecules 4a–s, at 25 μM, investigating seven representative cancer cell lines: hepatocellular carcinoma HuH-7, colorectal adenocarcinoma CaCo-2, breast carcinoma MDA-MB-231 and MDA-MB-468, colorectal carcinoma HCT-116, prostate carcinoma PC3 and breast carcinoma MCF7. […] For details see: ref. [2] and Supporting Information File 1, Table S1.
(§2) Cell culture. Skin normal fibroblastic cells are purchased from Lonza (Basel, Switzerland), HuH-7, Caco-2, MDA-MB-231, HCT-116, PC3, MCF7 and NCI-H727 cancer cell lines were obtained from ATCC (American Type Culture Collection). Cells are grown at 37 °C, 5% CO2 in ATCC recommended media: DMEM for HuH-7, MDA-MB-231, MDA-MB-468 and fibroblast, EMEM for MCF7 and CaCo-2, McCoy’s for HCT-116 and RPMI for PC3 and NCI-H727. All culture media are supplemented by 10% of FBS, 1% of penicillin-streptomycin and 2 mM glutamine.
(§3) Both studies have been performed following the protocols described in a previous paper, see ref. [2].

Caco-2 [1] = experiment: Cytotoxicity secondary screen (IC50); format: cell-based; settings: Homo sapiens, 48 h exposure, mean of triplicates, NE: no effect
Protocol: as §1, §2, §3

HuH7 [2] = experiment: Cytotoxicity primary screen (single dose); format: cell-based; settings: Homo sapiens, Huh-7; single dose 25 μM, 48 h exposure, mean of triplicates; read-out: percentage of cell survival over DMSO control, HuH7
Protocol: as §1, §2, §3
(§4) Table S1: Cytotoxicity studies (single dose at 25µM) of N-arylbenzo[h]quinazolin-2-amines 4a–s
(§5) The toxicity is expressed as the percentage of cell survival (from 100 % to 0 %) over DMSO control after 48 h exposure (mean of triplicates).
(§6) Effect of the solvent (DMSO) was studied at 0.25%.

Caco-2 [3] = experiment: Cytotoxicity primary screen (single dose); format: cell-based; settings: 48 h exposure, mean of triplicates
Protocol: as §1, §2, §3, §4, §5, §6

[4] = tested on: seven representative tumor cell lines; experiment: Cytotoxicity IC50, summary over several cell lines; format: cell-based; settings: read-out: IC50 (span over cell lines)
Protocol: as §2, with “For details see: ref. [2] and Supporting Information File 1, Table S1. […] [table] Cell culture.” for “Cell culture.”, “mM glutamine. Both studies have been performed following the protocols described in a previous paper, see ref. [2].” for “mM glutamine.”

MDA-MB-231 = experiment: Cytotoxicity secondary screen (IC50); format: cell-based; settings: Homo sapiens, 48 h exposure, mean of triplicates, NE: no effect
MCF7 [5] = experiment: Cytotoxicity secondary screen (IC50); format: cell-based; settings: Homo sapiens, 48 h exposure, mean of triplicates, NE: no effect
MDA-MB-468 = experiment: Cytotoxicity secondary screen (IC50); format: cell-based; settings: Homo sapiens, 48 h exposure, mean of triplicates, NE: no effect
HuH-7 = experiment: Cytotoxicity secondary screen (IC50); format: cell-based; settings: Homo sapiens, 48 h exposure, mean of triplicates, NE: no effect
Protocol: as §2, §3

PC3 [6] = experiment: Cytotoxicity secondary screen (IC50); format: cell-based; settings: Homo sapiens, PC-3; 48 h exposure, mean of triplicates; NE: no effect
Protocol: as §2, §3

normal human fibroblasts = experiment: Cytotoxicity secondary screen (IC50); format: cell-based; settings: Fibroblast, 48 h exposure, mean of triplicates, NE: no effect, highest concentration tested 25 μM, read-out: IC50 Fibro
Protocol: as §2, §3

MDA468 = experiment: Cytotoxicity primary screen (single dose); format: cell-based; set-up: viability: dose or concentration left out as unconfirmed; settings: 48 h exposure, mean of triplicates, read-out: percentage of cell survival over DMSO control, MDA468; for viability at 25 µM: single dose 25 μM
Protocol: as §1, §2, §3, §4, §5, §6

PC3 [7] = experiment: Cytotoxicity primary screen (single dose); format: cell-based; set-up: viability: dose or concentration left out as unconfirmed; settings: Homo sapiens, PC-3, 48 h exposure, mean of triplicates, read-out: percentage of cell survival over DMSO control, PC3; for viability at 25 µM: single dose 25 μM
Protocol: as §1, §2, §3, §4, §5, §6

MCF7 [8] = experiment: Cytotoxicity primary screen (single dose); format: cell-based; set-up: viability: dose or concentration left out as unconfirmed; settings: Homo sapiens, 48 h exposure, mean of triplicates, read-out: percentage of cell survival over DMSO control, MCF7; for viability at 25 µM: single dose 25 μM
Protocol: as §1, §2, §3, §4, §5, §6

HCT116 = experiment: Cytotoxicity primary screen (single dose); format: cell-based; set-up: viability: dose or concentration left out as unconfirmed; settings: Homo sapiens, HCT-116, 48 h exposure, mean of triplicates, read-out: percentage of cell survival over DMSO control, HCT116; for viability at 25 µM: single dose 25 μM
Protocol: as §1, §2, §3, §4, §5, §6

MDA231 = experiment: Cytotoxicity primary screen (single dose); format: cell-based; set-up: viability: dose or concentration left out as unconfirmed; settings: Homo sapiens, MDA-MB-231, 48 h exposure, mean of triplicates, read-out: percentage of cell survival over DMSO control, MDA231; for viability at 25 µM: single dose 25 μM
Protocol: as §1, §2, §3, §4, §5, §6

DYRKs kinases = tested on: DYRKs kinases; set-up: method as in PMID 33422908, PMID 36234686; settings: at 100 μM; cited from earlier work
HuH7 [9] = experiment: Cytotoxicity primary screen (single dose); format: cell-based; set-up: dose or concentration left out as unconfirmed; settings: Homo sapiens, Huh-7; 48 h exposure, mean of triplicates; read-out: percentage of cell survival over DMSO control, HuH7
[10] = reference compound at 0.025 M (so in the source)

SMILES	IC50 (HCT-116) [µM]	IC50 (Caco-2 [1]) [µM]	viability at 25 µM (HuH7 [2]) [%]	percentage of cell survival over DMSO control, CaCo-2 (Caco-2 [3]; single dose 25 μM) [%]	IC50 (MDA-MB-231) [µM]	IC50 (MCF7 [5]) [µM]	IC50 (MDA-MB-468) [µM]	IC50 (HuH-7) [µM]	IC50 (PC3 [6]) [µM]	IC50 (normal human fibroblasts) [µM]	viability at 25 µM (MDA468) [%]	viability at 25 µM (PC3 [7]) [%]	viability at 25 µM (MCF7 [8]) [%]	viability at 25 µM (HCT116) [%]	viability at 25 µM (MDA231) [%]	other results
c1ccc(Nc2ncc3ccc4ccccc4c3n2)cc1 [Compound 4a, N-phenylbenzo[h]quinazolin-2-amine]	4	4.7	60	33	29	13	6	1.7	34.5	> 25	56	58	59	48	61	IC50 ([4]; against HuH-7, Caco-2, MDA-MB-468 and HCT-116 cells): 1.7 to 6 µM
Fc1cccc(Nc2ncc3ccc4ccccc4c3n2)c1 [Compound 4i, N-(3-fluorophenyl)benzo[h]quinazolin-2-amine]	6	2	60	34	17	3	4	17	11	> 25	59	36	59	11	49	IC50 ([4]; on Caco-2, MDA-MB-468, HCT-116 and MCF7): 2 to 6 µM
Brc1cc(Br)cc(Nc2ncc3ccc4ccccc4c3n2)c1 [Compound 4o, N-(3,5-dibromophenyl)benzo[h]quinazolin-2-amine]	23	16	62	46	> 25	21	20	24	21	> 25	47	38	85	27	67	–
Clc1cc(Br)cc(Nc2ncc3ccc4ccccc4c3n2)c1 [Compound 4q, N-(3-bromo-5-chlorophenyl)benzo[h]quinazolin-2-amine]	13	14	49	35	20	14	19	16	19	> 25	38	24	73	13	41	–
Cc1ccc(-n2cc(COc3cccc4cnc(Nc5cccc(Cl)c5)nc34)nn2)c([N+](=O)[O-])c1 [DB18]	–	–	–	–	–	–	–	–	–	–	–	–	–	–	–	action against DYRKs kinases (DYRKs kinases): does not show any action
CC(=O)O[C@H]1C(=O)[C@@]2(C)[C@H]([C@H](OC(=O)c3ccccc3)[C@]3(O)C[C@H](OC(=O)[C@H](O)[C@@H](NC(=O)c4ccccc4)c4ccccc4)C(C)=C1C3(C)C)[C@]1(OC(C)=O)CO[C@@H]1C[C@@H]2O [Taxol, reference compound]	0.003	0.07	–	–	0.02	0.02	0.006	0.009	0.004	–	–	–	–	–	–	percentage of cell survival over DMSO control, CaCo-2 (Caco-2 [3]; [10]): 36%; viability (HuH7 [9]): 43%; viability (PC3 [7]): 30%; viability (MCF7 [8]): 27%; viability (HCT116): 7%; viability (MDA231): 32%
COc1cccc2c1C(=O)c1c(O)c3c(c(O)c1C2=O)C[C@@](O)(C(=O)CO)C[C@@H]3O[C@H]1C[C@H](N)[C@H](O)[C@H](C)O1 [doxorubicin, reference compound]	0.04	–	–	–	0.03	0.07	0.03	0.03	0.06	–	–	–	–	–	–	percentage of cell survival over DMSO control, CaCo-2 (Caco-2 [3]; [10]): 59%; viability (HuH7 [9]): 59%; viability (MDA468): 24%; viability (PC3 [7]): 42%; viability (MDA231): 31%

Reference: PMC11496704, “Synthesis and cytotoxicity studies of novel N-arylbenzo[h]quinazolin-2-amines” (Beilstein Journal of Organic Chemistry, 2024)
